Results as given in BigSolDB 2.1.

O=C1C[C@@H](c2ccc(O)cc2)Oc2cc(O)cc(O)c21
solubility (mole fraction)
Details | 288.15 K | 293.15 K | 298.15 K | 303.15 K | 308.15 K | 313.15 K | 318.15 K | 323.15 K | 328.15 K
in ethyl acetate | 0.00998 | 0.0133 | 0.0154 | 0.0171 | 0.0191 | 0.0215 | 0.0244 | 0.027 | 0.0293
in isopropanol | 0.0101 | 0.0116 | 0.0141 | 0.0161 | 0.0185 | 0.0204 | 0.0218 | 0.0252 | 0.0264
in methanol | 0.00875 | 0.0094 | 0.00991 | 0.0105 | 0.0114 | 0.0144 | 0.0173 | 0.0187 | 0.0205
in n-butanol | 0.000972 | 0.00137 | 0.00175 | 0.00215 | 0.00259 | 0.00299 | 0.00344 | 0.00388 | 0.0042
in n-hexane | 2.92e-06 | 3.7e-06 | 4.71e-06 | 5.42e-06 | 6.46e-06 | 7.17e-06 | 7.73e-06 | 8.69e-06 | 9.09e-06

C[C@@H]1O[C@@H](O[C@H]2[C@H](Oc3cc(O)c4c(c3)O[C@H](c3ccc(O)cc3)CC4=O)O[C@H](CO)[C@@H](O)[C@@H]2O)[C@H](O)[C@H](O)[C@H]1O
solubility (mole fraction)
Details | 288.15 K | 293.15 K | 298.15 K | 303.15 K | 308.15 K | 313.15 K | 318.15 K | 323.15 K | 328.15 K
in ethyl acetate | 0.000184 | 0.000248 | 0.00031 | 0.00035 | 0.000404 | 0.000458 | 0.000513 | 0.000594 | 0.000646
in isopropanol | 1.26e-05 | 1.59e-05 | 2.1e-05 | 2.46e-05 | 2.97e-05 | 3.34e-05 | 3.75e-05 | 4.29e-05 | 4.79e-05
in methanol | 0.00158 | 0.00168 | 0.00197 | 0.00224 | 0.00264 | 0.00291 | 0.00322 | 0.00359 | 0.00389
in n-butanol | 4.85e-05 | 6.34e-05 | 7.46e-05 | 0.000105 | 0.000157 | 0.000218 | 0.000285 | 0.000345 | 0.000391
in n-hexane | 9.97e-08 | 1.39e-07 | 1.75e-07 | 2.21e-07 | 2.63e-07 | 3.12e-07 | 3.6e-07 | 4.04e-07 | 4.55e-07
